Measurements: paper PMC8491553 (ACS Medicinal Chemistry Letters, 2021)

biological target: SARS-CoV-2 main protease (3CLpro) (Severe acute respiratory syndrome coronavirus 2, UniProt P0DTD1); assay type: biochemical

| Structure (SMILES) | activity as main protease inhibitor (in words) |
| --- | --- |
| CC12CN(CC(=O)O)CC(C)(CN(CC(=O)O)C1)C2=O [Compound 4m] | lower micromolar range |
| CC(C)(C)OC(=O)Cn1cc(CN2CC3(C)CN(Cc4cn(CC(=O)OC(C)(C)C)nn4)CC(C)(C2)C3=O)nn1 [Compound 4p] | lower micromolar range |
| CC12CN(Cc3ccccc3)CC(C)(CN(Cc3ccccc3)C1)C2=O [Compound 4d] | submicromolar activity |
| C#CCN1CC2(C)CN(CC#C)CC(C)(C1)C2=O [Compound 4c] | lower micromolar range |
| CC(C)Cc1ccc(C(C)C(=O)O)cc1 (stereo not shown) [Ibuprofen, reference compound] | no activity at all |
| CC(C)(C)OC(=O)NCCn1cc(CN2CC3(C)CN(Cc4cn(CCNC(=O)OC(C)(C)C)nn4)CC(C)(C2)C3=O)nn1 [Compound 4q] | submicromolar activity |
| Cc1cc(CN2CC3(C)CN(Cc4cc(C)no4)CC(C)(C2)C3=O)on1 [Compound 4o] | lower micromolar range |
| CC12CN(CC#N)CC(C)(CN(CC#N)C1)C2=O [Compound 4l] | lower micromolar range |
| CC12CN(Cc3cn(Cc4ccccc4)nn3)CC(C)(CN(Cc3cn(Cc4ccccc4)nn3)C1)C2=O [Compound 4r] | lower micromolar range |
| Cn1nc(C(=O)N2CC3(C)CN(C(=O)c4nn(C)c5c4CCc4ccccc4-5)CC(C)(C2)C3=O)c2c1-c1ccccc1CC2 [Compound 2j] | submicromolar range |
